Patent publication US11034742B2, “Peptides with antibiotic potential against Mycobacterium tuberculosis” (LINNANE PHARMA AB, priority 2017, dated 2021)
Converted amounts (≈) assume the structure as drawn. Positions of bridges follow the written chain, without caps; N, C: chain ends. Residues, ends and D or L forms follow the SMILES beside them.

Test system: M. tuberculosis

SMILES | MIC (mg/L) | MIC (μM) [µM] | mean concentration inhibiting 99% of bacterial growth [µM]
CC[C@H](C)[C@@H]1NC(=O)[C@H](CO)NC(=O)[C@H](CCCCN)NC(=O)[C@@H]2CSSC[C@@H](C(=O)N[C@@H](Cc3ccc(O)cc3)C(=O)O)NC(=O)[C@H](CCCCN)NC(=O)[C@@H]3CSSC[C@H](NC(=O)[C@H](CCC(N)=O)NC(=O)[C@H]([C@@H](C)CC)NC(=O)[C@H](CC(=O)O)NC(=O)[C@H](CC(=O)O)NC(=O)[C@H](CCC(=O)O)NC(=O)[C@H](CO)NC(=O)[C@H](Cc4c[nH]c5ccccc45)NC(=O)[C@@H]4CCCN4C(=O)CNC(=O)[C@H](CC(N)=O)NC(=O)[C@@H](NC(=O)CNC(=O)[C@H](Cc4ccccc4)NC(=O)CN)CSSC[C@H](NC(=O)[C@H](Cc4ccc(O)cc4)NC(=O)CNC(=O)CNC(=O)[C@H](CCCCN)NC(=O)[C@H](Cc4ccc(O)cc4)NC(=O)CNC(=O)[C@H](CCCCN)NC1=O)C(=O)N[C@@H](C)C(=O)N[C@@H](CCCNC(=N)N)C(=O)NCC(=O)NCC(=O)N[C@@H](Cc1ccccc1)C(=O)N[C@@H](C(C)C)C(=O)N3)C(=O)N[C@@H](Cc1c[nH]cn1)C(=O)N[C@@H](CC(N)=O)C(=O)N[C@@H](Cc1c[nH]cn1)C(=O)N2 [SEQ ID NO: 3] (H-GFGCNGPWSEDDIQCHNHCKSIKGYKGGYCARGGFVCKCY-OH; disulfide 4-30, 15-37, 19-39 (inferred); N-terminus and C-terminus assumed) | 27.5 (≈ 6.27 µM) | 6.8 (≈ 29.8 µg/mL) | 6.3
CC[C@H](C)[C@@H]1NC(=O)[C@H](C)NC(=O)[C@@H]2CSSC[C@H](NC(=O)CNC(=O)[C@H](Cc3ccccc3)NC(=O)CN)C(=O)N[C@@H](CC(N)=O)C(=O)NCC(=O)N3CCC[C@H]3C(=O)N[C@@H](Cc3c[nH]c4ccccc34)C(=O)N[C@@H](CO)C(=O)N[C@@H](CCC(=O)O)C(=O)N[C@@H](CC(=O)O)C(=O)N[C@@H](CC(=O)O)C(=O)N[C@@H]([C@@H](C)CC)C(=O)N[C@@H](CCC(N)=O)C(=O)N[C@H]3CSSC[C@H](NC(=O)[C@H](C(C)C)NC(=O)[C@H](Cc4ccccc4)NC(=O)CNC(=O)CNC1=O)C(=O)N[C@@H](CCCCN)C(=O)N[C@H](C(=O)N[C@@H](Cc1ccc(O)cc1)C(=O)O)CSSC[C@H](NC(=O)[C@H](Cc1c[nH]cn1)NC(=O)[C@H](CC(N)=O)NC(=O)[C@H](Cc1c[nH]cn1)NC3=O)C(=O)N[C@@H](CCCCN)C(=O)N[C@@H](CO)C(=O)N[C@@H]([C@@H](C)CC)C(=O)N[C@@H](CCCCN)C(=O)NCC(=O)N[C@@H](Cc1ccc(O)cc1)C(=O)N[C@@H](CCCCN)C(=O)NCC(=O)NCC(=O)N[C@@H](Cc1ccc(O)cc1)C(=O)N2 [SEQ ID NO: 4] (H-GFGCNGPWSEDDIQCHNHCKSIKGYKGGYCAIGGFVCKCY-OH; disulfide 4-30, 15-37, 19-39 (inferred); N-terminus and C-terminus assumed) |  |  | 6.3
